Key:
Assay type in all cases: in vivo
rice plant = experiment: Test Example 5: effect on crop by foliage application, plastic box (symbol b); conditions: 320 g/ha, 3 weeks after application
In short: (§1)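 Foliage-application test plants come from spot sowing in sterilized diluvial soil under a soil layer of about 1.5 cm, grown at 25° C. to 30° C. in a greenhouse.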

Abutilon theophrasti = experiment: Test Example 5: herbicidal effect by foliage application, plastic box (symbol M); conditions: 320 g/ha, 3 weeks after application
In short: (§2)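 Greenhouse foliar test: seedlings at 14 days, grown 25° C. to 30° C. in sterilized diluvial soil; compound applied as an aqueous dilution of an emulsion; response read 3 weeks after spraying.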

[1] = test system: Echinochloa crus-galli var. crus-galli; experiment: Test Example 4: herbicidal effect by soil treatment (symbol H); conditions: application herbicide amount 320 g/ha
In short: (§3)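 Seeds were sown in sterilized diluvial soil, covered with about 1.5 cm of soil, and the soil surface was sprayed with a water-diluted emulsion of the compound at a predetermined rate. Plants grew in a greenhouse at 25° C. to 30° C.; effects were scored visually 3 weeks after application.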

Leptochloa chinensis = experiment: Test Example 3: herbicidal effect by foliage application, Wagner pot (symbol D); conditions: application herbicide amount 320 g/ha
In short: (§4)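 In a shallow-flooded alluvial soil system held at 25–30 °C, plants including rice grew for 14 days and were then sprayed over the foliage with emulsion diluted to a fixed herbicide amount. Visual rating followed at 3 weeks.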

Lolium multiflorum Lam. = experiment: Test Example 4: herbicidal effect by soil treatment (symbol K); conditions: application herbicide amount 320 g/ha
In short: as §3

soybean = experiment: Test Example 5: effect on crop by foliage application, plastic box (symbol d); conditions: 320 g/ha, 3 weeks after application
In short: as §1

Amaranthus retroflexus = experiment: Test Example 4: herbicidal effect by soil treatment (symbol N); conditions: application herbicide amount 320 g/ha
In short: as §3

Scirpus juncoides = experiment: Test Example 1: herbicidal activity, application before weed generation in submerged conditions (symbol B); conditions: application herbicide amount 320 g/ha
In short: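 Greenhouse growth at 25–30 °C lasted 3 weeks after treatment, when each weed was graded 0–5 by herbicidal ratio. Treatment was a diluted emulsion applied to the water surface of 4 cm-submerged alluvial soil on the sowing day.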

beet = experiment: Test Example 4: effect on crop by soil treatment (symbol f); conditions: application herbicide amount 320 g/ha
In short: (§5)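 Plants are raised in a greenhouse (25° C. to 30° C.) from spot-sown seed, which sits under about 1.5 cm of sterilized diluvial soil in a box shared with weed species.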

Galium spurium = experiment: Test Example 5: herbicidal effect by foliage application, plastic box (symbol Q); conditions: 320 g/ha, 3 weeks after application
In short: as §2

Cyperus difformis = experiment: Test Example 3: herbicidal effect by foliage application, Wagner pot (symbol E); conditions: application herbicide amount 320 g/ha
In short: as §4

Alopecurus myosuroides = experiment: Test Example 5: herbicidal effect by foliage application, plastic box (symbol J); conditions: 320 g/ha, 3 weeks after application
In short: as §2

Digitaria ciliaris = experiment: Test Example 4: herbicidal effect by soil treatment (symbol F); conditions: application herbicide amount 320 g/ha
In short: as §3

Setaria viridis = experiment: Test Example 5: herbicidal effect by foliage application, plastic box (symbol G); conditions: 320 g/ha, 3 weeks after application
In short: as §2

Chenopodium album = experiment: Test Example 5: herbicidal effect by foliage application, plastic box (symbol O); conditions: 320 g/ha, 3 weeks after application
In short: as §2

rice = experiment: Test Example 4: effect on crop by soil treatment (symbol b); conditions: application herbicide amount 320 g/ha
In short: as §5

Veronica persica = experiment: Test Example 5: herbicidal effect by foliage application, plastic box (symbol R); conditions: 320 g/ha, 3 weeks after application
In short: as §2

Stellaria media = experiment: Test Example 5: herbicidal effect by foliage application, plastic box (symbol P); conditions: 320 g/ha, 3 weeks after application
In short: as §2

SMILES | b: directly sowed rice plant, effect on crop grade (rice plant) | M: Abutilon theophrasti, herbicidal effect grade (Abutilon theophrasti) | H: Echinochloa crus-galli var. crus-galli, herbicidal effect grade [1] | herbicidal effect on D (Leptochloa chinensis), grade 0-5 (Leptochloa chinensis) | K: Lolium multiflorum Lam., herbicidal effect grade (Lolium multiflorum Lam.) | d: soybean, effect on crop grade (soybean) | N: Amaranthus retroflexus, herbicidal effect grade (Amaranthus retroflexus) | Herbicidal effect grade, B: Scirpus juncoides (Scirpus juncoides) | Q: Galium spurium, herbicidal effect grade (Galium spurium) | herbicidal effect on E, grade 0-5 (Cyperus difformis) | J: Alopecurus myosuroides, herbicidal effect grade (Alopecurus myosuroides) | F: Digitaria ciliaris, herbicidal effect grade (Digitaria ciliaris) | G: Setaria viridis, herbicidal effect grade (Setaria viridis) | O: Chenopodium album, herbicidal effect grade (Chenopodium album) | b: directly sowed rice plant, effect on crop grade (rice) | R: Veronica persica, herbicidal effect grade (Veronica persica) | P: Stellaria media, herbicidal effect grade (Stellaria media) | further results
CCC(CCC1CC(O)=C(c2c(C)cc(C)cc2C)C1=O)=NOC (mixture of isomers) [4-001] | 4 (Herbicidal ratio of 70% or higher and lower than 90%) | 0 (Herbicidal ratio of 5% or lower (almost no effect)) | 0 (Herbicidal ratio of 5% or lower (almost no effect)) | 3 (Herbicidal ratio of 40% or higher and lower than 70%) | 5 (Herbicidal ratio of 90% or more (almost completely withered)) | 0 (Herbicidal ratio of 5% or lower (almost no effect)) | 0 (Herbicidal ratio of 5% or lower (almost no effect)) | 0 (Herbicidal ratio of 5% or lower (almost no effect)) | 0 (Herbicidal ratio of 5% or lower (almost no effect)) | 0 (Herbicidal ratio of 5% or lower (almost no effect)) | 5 (Herbicidal ratio of 90% or more (almost completely withered)) | 2 (Herbicidal ratio of 20% or higher and lower than 40%) | 1 (Herbicidal ratio of 5% or higher and lower than 20%) | 0 (Herbicidal ratio of 5% or lower (almost no effect)) | 5 (Herbicidal ratio of 90% or more (almost completely withered)) | – | – | f: beet, effect on crop grade (beet): 0 (Herbicidal ratio of 5% or lower (almost no effect))
CON=C(C)CC1CC(O)=C(c2c(C)cc(-n3cc(Cl)cn3)cc2C)C1=O (mixture of isomers) [6-004] | 5 (Herbicidal ratio of 90% or more (almost completely withered)) | 3 (Herbicidal ratio of 40% or higher and lower than 70%) | 5 (Herbicidal ratio of 90% or more (almost completely withered)) | 5 (Herbicidal ratio of 90% or more (almost completely withered)) | 5 (Herbicidal ratio of 90% or more (almost completely withered)) | 1 (Herbicidal ratio of 5% or higher and lower than 20%) | 4 (Herbicidal ratio of 70% or higher and lower than 90%) | 5 (Herbicidal ratio of 90% or more (almost completely withered)) | 3 (Herbicidal ratio of 40% or higher and lower than 70%) | 5 (Herbicidal ratio of 90% or more (almost completely withered)) | 5 (Herbicidal ratio of 90% or more (almost completely withered)) | 5 (Herbicidal ratio of 90% or more (almost completely withered)) | 5 (Herbicidal ratio of 90% or more (almost completely withered)) | 3 (Herbicidal ratio of 40% or higher and lower than 70%) | 5 (Herbicidal ratio of 90% or more (almost completely withered)) | 3 (Herbicidal ratio of 40% or higher and lower than 70%) | – | –
C#CCOC1=C(c2c(C)cc(C)cc2C)C(=O)C(CC(C)=NOC)C1 (stereo not drawn) [1-008] | 4 (Herbicidal ratio of 70% or higher and lower than 90%) | 2 (Herbicidal ratio of 20% or higher and lower than 40%) | – | 5 (Herbicidal ratio of 90% or more (almost completely withered)) | – | 2 (Herbicidal ratio of 20% or higher and lower than 40%) | – | 3 (Herbicidal ratio of 40% or higher and lower than 70%) | 0 (Herbicidal ratio of 5% or lower (almost no effect)) | 4 (Herbicidal ratio of 70% or higher and lower than 90%) | 5 (Herbicidal ratio of 90% or more (almost completely withered)) | – | 5 (Herbicidal ratio of 90% or more (almost completely withered)) | 0 (Herbicidal ratio of 5% or lower (almost no effect)) | – | 0 (Herbicidal ratio of 5% or lower (almost no effect)) | 0 (Herbicidal ratio of 5% or lower (almost no effect)) | H (Echinochloa crus-galli var. crus-galli) herbicidal effect grade [1]: 4 (Herbicidal ratio of 70% or higher and lower than 90%); K (Lolium multiflorum Lam.) herbicidal effect grade (Lolium multiflorum Lam.): 5 (Herbicidal ratio of 90% or more (almost completely withered)); N (Amaranthus retroflexus) herbicidal effect grade (Amaranthus retroflexus): 0 (Herbicidal ratio of 5% or lower (almost no effect)); F (Digitaria ciliaris) herbicidal effect grade (Digitaria ciliaris): 5 (Herbicidal ratio of 90% or more (almost completely withered)); b (directly sowed rice plant) effect on crop grade (rice): 3 (Herbicidal ratio of 40% or higher and lower than 70%)
Cc1cc(C)c(C2=C(O)CC(CC(=O)C(C)C)C2=O)c(C)c1 (stereo not drawn) [2-016] | 5 (Herbicidal ratio of 90% or more (almost completely withered)) | 4 (Herbicidal ratio of 70% or higher and lower than 90%) | 5 (Herbicidal ratio of 90% or more (almost completely withered)) | 5 (Herbicidal ratio of 90% or more (almost completely withered)) | 5 (Herbicidal ratio of 90% or more (almost completely withered)) | 3 (Herbicidal ratio of 40% or higher and lower than 70%) | 0 (Herbicidal ratio of 5% or lower (almost no effect)) | 0 (Herbicidal ratio of 5% or lower (almost no effect)) | 0 (Herbicidal ratio of 5% or lower (almost no effect)) | 4 (Herbicidal ratio of 70% or higher and lower than 90%) | 5 (Herbicidal ratio of 90% or more (almost completely withered)) | 5 (Herbicidal ratio of 90% or more (almost completely withered)) | 5 (Herbicidal ratio of 90% or more (almost completely withered)) | 0 (Herbicidal ratio of 5% or lower (almost no effect)) | 5 (Herbicidal ratio of 90% or more (almost completely withered)) | 0 (Herbicidal ratio of 5% or lower (almost no effect)) | 0 (Herbicidal ratio of 5% or lower (almost no effect)) | –
